# Experimental data from a melting point compilation (Tetko et al.; mined from patent text by program, amines drawn as free bases though some values may be those of a salt).
row,Compound,melting point [°C]
1,NC(=O)CCN1CCC(CNc2ccc(Cl)cc2C(=O)Nc2ccc(Cl)cn2)CC1,193 to 196
2,CC1=NN(C)C(=O)C1(Cl)C(=O)c1ccccc1 (stereo unspecified),70.5 to 72
3,Cc1cc([N+](=O)[O-])c(O)c2c1CCC2=O,154 to 157
4,Cn1cc(/C=C/C#N)c2ccccc21,91 to 94
5,COc1ccccc1N1CCN(C(=O)N(C)c2cc(C)c(C)nc2OC)CC1,131 to 132
6,COc1ccc(C(=NO)c2ccccc2F)c(Cl)c1Cl,195 to 197
7,COc1ccc([C@]2(c3ccc(F)c(-c4cncnc4)c3)N=C(N)N(C)C2=O)cc1C,115
8,CC=CCCCn1cnc2c1c(=O)n(C)c(=O)n2C,58 to 64
9,CC1(C)Oc2ccc(C(N)=O)cc2C(c2cccn(Cc3ccccc3)c2=O)C1O (stereo unspecified),230 to 235
10,O=c1[nH]c2cc(Cl)ccc2c(O)c1-c1ccccc1Br,357 to 358
11,COc1ccc(Cn2c(=O)c3ccccc3n(CCCCBr)c2=O)cc1,124 to 125
12,CC(C)C(=O)NC1CCc2c(c3cc(C#N)ccc3n2Cc2ccccc2C(F)(F)F)C1 (stereo unspecified),222 to 225
13,CC(C)CCCOC1CCC2C3C(=O)C=C4CC(O)CCC4(C)C3CCC12C (stereo unspecified),134
14,Nc1c2c(=O)[nH]c(C(F)(F)F)nc2nn1-c1ccccc1,267 to 269
15,CCCC[C@H](NC(=O)[C@H](CC(C)C)NC(=O)COc1ccc(F)cc1)C(=O)CSCc1ccco1,88 to 91
16,CCOc1ccc(OC)cc1,30 to 31
17,CCOC(=O)C1=CC(=O)CC(c2ccc(Cl)c(OC)c2F)N1 (stereo unspecified),116 to 118
18,N#Cc1c[nH]c2cccc(O)c12,206 to 207
19,O=c1oc(-c2ccccc2)cc(O)c1Oc1ccccc1,215 to 219
20,CCCn1c2ccccc2c2c3c(nc(C)c21)CC(C)(C)CC3=O,123 to 125
21,CCCCCCc1sc(C(N)=O)c2c1-c1nn(C)cc1CC2,194 to 195
22,CCOC(=O)C(=O)c1csc(NC(c2ccccc2)c2ccccc2)n1,82 to 85
23,COc1ccc2c(c1)c(Cc1cc(=O)n(C3CCCCC3)[nH]1)c(C)n2C(=O)c1ccc(Cl)c(Cl)c1,104 to 107
24,CC1SC(=O)NN=C1c1ccc2c(c1)CC(C)(C)C(=O)N2 (stereo unspecified),245
25,COC(C)=CC(=O)NC1CCCCC1,109
26,O=Cc1cccc(-c2ccoc2)n1,59 to 61
27,COC(=O)c1ccc(N=Cc2cccc(F)c2)cn1,111 to 114

# More lines, now with the values ahead:
row,melting point [°C],Compound
1,254 to 256,COc1cc2c(Nc3ccc(Cl)cc3F)ncnc2cc1OCCCC(=O)N1CCCC1
2,184,O[C@@H]1c2ccccc2CC[C@H]1N1CCC(O)(c2ccccc2)CC1 (relative stereo)
3,259 to 261,CCOC(=O)c1nnc2ccc(C#N)cc2c1O
4,155 to 157,COCC(=O)Nc1c(C(=O)c2cccc(C)c2)[nH]c2ccc([N+](=O)[O-])cc12
5,147 to 149,c1cc(OCCCc2nnn[nH]2)cc(OCc2ccc3ccccc3n2)c1
6,122 to 124,COC(=O)CCCS(=O)(=O)c1c(Cc2cccc3ccccc23)sc2c1c(=O)n(C)c(=O)n2CC(C)C
7,182 to 183,CC(C)(C)OC(=O)Nc1ccc(I)cc1NC(=O)CC(=O)c1cccc(C#N)c1
8,122 to 124,COc1ccc(-c2nc3c(OC(C)=O)cccc3s2)cc1
9,101,Cc1cc(Cl)c(O)c(CN(C)C2CCCCCCC2)c1
10,57,Cc1cc(N)c(F)cc1Br
11,124,c1cnc(N2CCN(CCCCn3cccn3)CC2)nc1
12,98 to 100,O=C(O)Cc1ccc(Oc2ccc(Cl)cc2)cc1
13,180 to 182,CCOC(=O)CNc1ccc(C2=NNC(=O)NC2C)cc1 (stereo unspecified)
14,151 to 152,CCOC(=O)c1c(C)cc2nc(CO)n(-c3ccccc3Cl)c(=O)c2c1C
15,176 to 178,CCn1cc(C)c(NS(=O)(=O)c2ccc(N)cc2)nc1=O
16,155,COc1ccc(C(=CN2CCNC2=O)c2ccccc2)cc1OC
17,128 to 129,COn1c(C)nc2c(NCc3c(C)cccc3C)cc(C(=O)N(C)C)cc21
18,252,O=c1[nH]c2ccc([N+](=O)[O-])cc2s1
19,120,CCN(c1cccc(Cl)c1)C(C(=O)O)c1c(Cl)cccc1Cl (stereo unspecified)
20,115 to 117,O=c1c(CO)cc(-c2ccc3c(c2)CCO3)nn1CC1CC1
21,229 to 231,CCc1cccc(C)c1CNc1cc(C(=O)N2CCOCC2)cc2c1nc(C)n2C
22,134,COc1ccc(C(=O)NCCBr)c([N+](=O)[O-])c1
23,245 to 247,COc1cc2c(cc1Nc1ncc(Cl)c(Nc3ccccc3OCC#N)n1)CCOC(=O)N2C
24,125 to 126,CCn1nc(C(N)=O)cc1CC(C)C
